Reference: ChEMBL document CHEMBL1201862, “PubChem BioAssay data set” (2004)
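Method: 48-hour compound exposure of cells in 96-well plates, five concentrations, linear interpolation of endpoints. At the GI50, growth is halved.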 Activity calls are given as the source filed them. No stated cut-off is given here; in the data, active = GI50 up to about 1.1 µM and inactive = higher.

What was measured:
Assay in all cases: NCI tumour cell line growth inhibition, 48 h
NCI-H460 = system: NCI-H460
Malme-3M = system: Malme-3M
K562 = system: K562
OVCAR-5 = system: OVCAR-5
COLO 205 = system: COLO 205
SW-620 = system: SW-620
MCF7 = system: MCF7
HOP-92 = system: HOP-92
NCI/ADR-RES = system: NCI/ADR-RES
A498 = system: A498
Hs-578T = system: Hs-578T
HL-60 = system: HL-60
NCI-H522 = system: NCI-H522
BT-549 = system: BT-549
HCT-116 = system: HCT-116
SK-MEL-28 = system: SK-MEL-28
SNB-19 = system: SNB-19
OVCAR-3 = system: OVCAR-3
RPMI-8226 = system: RPMI-8226
T47D = system: T47D
M14 = system: M14
NCI-H23 = system: NCI-H23
MOLT-4 = system: MOLT-4
HCT-15 = system: HCT-15
KM12 = system: KM12
CCRF-CEM = system: CCRF-CEM
UACC-62 = system: UACC-62
MDA-MB-435 = system: MDA-MB-435
EKVX = system: EKVX
MDA-MB-231 = system: MDA-MB-231
SK-OV-3 = system: SK-OV-3
DU-145 = system: DU-145
SF-295 = system: SF-295
786-0 = system: 786-0
SF-268 = system: SF-268
RXF 393 = system: RXF 393
UO-31 = system: UO-31
SF-539 = system: SF-539
IGROV-1 = system: IGROV-1
NCI-H226 = system: NCI-H226
HT-29 = system: HT-29
SR = system: SR
CAKI-1 = system: CAKI-1
LOX IMVI = system: LOX IMVI
ACHN = system: ACHN
SNB-75 = system: SNB-75
SK-MEL-5 = system: SK-MEL-5
TK-10 = system: TK-10
U-251 = system: U-251
MDA-N = system: MDA-N
HCC 2998 = system: HCC 2998
OVCAR-8 = system: OVCAR-8
HOP-62 = system: HOP-62
PC-3 = system: PC-3
UACC-257 = system: UACC-257
A549 = system: A549
SK-MEL-2 = system: SK-MEL-2
SN12C = system: SN12C

Compound: COC(=O)/C=C1/OC(c2ccccc2)=C(C)C1=O
- GI50 (NCI-H460): 20 µM (inactive)
- GI50 (Malme-3M): 13.3 µM (inactive)
- GI50 (K562): 3.2 µM (inactive)
- GI50 (OVCAR-5): 16 µM (inactive)
- GI50 (COLO 205): 17.5 µM (inactive)
- GI50 (SW-620): 2.4 µM (inactive)
- GI50 (MCF7): 3.81 µM (inactive)
- GI50 (HOP-92): 13.2 µM (inactive)
- GI50 (NCI/ADR-RES): 20.9 µM (inactive)
- GI50 (A498): 18.7 µM (inactive)
- GI50 (Hs-578T): 27.5 µM (inactive)
- GI50 (HL-60): 1.97 µM (inactive)
- GI50 (NCI-H522): 12.6 µM (inactive)
- GI50 (BT-549): 2.86 µM (inactive)
- GI50 (HCT-116): 4.18 µM (inactive)
- GI50 (SK-MEL-28): 16.8 µM (inactive)
- GI50 (SNB-19): 16.4 µM (inactive)
- GI50 (OVCAR-3): 20 µM (inactive)
- GI50 (RPMI-8226): 2.19 µM (inactive)
- GI50 (T47D): 20.1 µM (inactive)
- GI50 (M14): 11.7 µM (inactive)
- GI50 (NCI-H23): 20.2 µM (inactive)
- GI50 (MOLT-4): 3.28 µM (inactive)
- GI50 (HCT-15): 4.79 µM
- GI50 (KM12): 14.1 µM (inactive)
- GI50 (CCRF-CEM): 3.62 µM (inactive)
- GI50 (UACC-62): 4.12 µM (inactive)
- GI50 (MDA-MB-435): 13.9 µM (inactive)
- GI50 (EKVX): 17.9 µM (inactive)
- GI50 (MDA-MB-231): 4.86 µM (inactive)
- GI50 (SK-OV-3): 10.7 µM (inactive)
- GI50 (DU-145): 19.3 µM (inactive)
- GI50 (SF-295): 13.3 µM (inactive)
- GI50 (786-0): 10.2 µM (inactive)
- GI50 (SF-268): 17.9 µM (inactive)
- GI50 (RXF 393): 10.6 µM (inactive)
- GI50 (UO-31): 13.8 µM (inactive)
- GI50 (SF-539): 17.4 µM (inactive)
- GI50 (IGROV-1): 14.1 µM (inactive)
- GI50 (NCI-H226): 15.8 µM (inactive)
- GI50 (HT-29): 1.98 µM (inactive)
- GI50 (SR): 2.61 µM (inactive)
- GI50 (CAKI-1): 4.05 µM (inactive)
- GI50 (LOX IMVI): 1.28 µM (inactive)
- GI50 (ACHN): 13 µM (inactive)
- GI50 (SNB-75): 23.6 µM (inactive)
- GI50 (SK-MEL-5): 13.6 µM (inactive)
- GI50 (TK-10): 15.7 µM (inactive)
- GI50 (U-251): 14.1 µM (inactive)
- GI50 (MDA-N): 1.36 µM (inactive)
- GI50 (HCC 2998): 16.6 µM (inactive)
- GI50 (OVCAR-8): 6.08 µM (inactive)
- GI50 (HOP-62): 16 µM (inactive)

Compound: N#CC1(C#N)N[C@@H](c2ccsc2)[C@H]2C(=O)N(c3ccccc3)C(=O)[C@H]21
- GI50 (Malme-3M): > 100 µM (inactive)
- GI50 (PC-3): 53.7 µM (inactive)
- GI50 (K562): 51.9 µM (inactive)
- GI50 (COLO 205): 93.8 µM (inactive)
- GI50 (SW-620): > 100 µM (inactive)
- GI50 (HOP-92): 65.2 µM (inactive)
- GI50 (NCI/ADR-RES): > 100 µM (inactive)
- GI50 (A498): 26.4 µM (inactive)
- GI50 (Hs-578T): 83.6 µM (inactive)
- GI50 (HL-60): 21.4 µM (inactive)
- GI50 (NCI-H522): > 100 µM (inactive)
- GI50 (BT-549): 97.7 µM (inactive)
- GI50 (HCT-116): 79.1 µM (inactive)
- GI50 (UACC-257): 29.6 µM (inactive)
- GI50 (SK-MEL-28): 77.8 µM (inactive)
- GI50 (OVCAR-3): > 100 µM (inactive)
- GI50 (RPMI-8226): 18.7 µM (inactive)
- GI50 (T47D): 63.2 µM (inactive)
- GI50 (A549): > 100 µM (inactive)
- GI50 (NCI-H23): > 100 µM (inactive)
- GI50 (SK-MEL-2): > 100 µM (inactive)
- GI50 (MOLT-4): 36.7 µM (inactive)
- GI50 (KM12): > 100 µM (inactive)
- GI50 (SN12C): 89.1 µM (inactive)
- GI50 (UACC-62): 28.8 µM (inactive)
- GI50 (MDA-MB-435): 45.7 µM (inactive)
- GI50 (EKVX): > 100 µM (inactive)
- GI50 (MDA-MB-231): 61 µM (inactive)
- GI50 (SK-OV-3): > 100 µM (inactive)
- GI50 (DU-145): 66.4 µM (inactive)
- GI50 (SF-295): > 100 µM (inactive)
- GI50 (786-0): > 100 µM (inactive)
- GI50 (SF-268): 84.5 µM (inactive)
- GI50 (RXF 393): 70.3 µM (inactive)
- GI50 (UO-31): > 100 µM (inactive)
- GI50 (IGROV-1): 60.7 µM (inactive)
- GI50 (NCI-H226): > 100 µM (inactive)
- GI50 (HT-29): 85.5 µM (inactive)
- GI50 (SR): 21.3 µM (inactive)
- GI50 (CAKI-1): 43 µM (inactive)
- GI50 (LOX IMVI): 37.3 µM (inactive)
- GI50 (ACHN): > 100 µM (inactive)
- GI50 (SNB-75): > 100 µM (inactive)
- GI50 (SK-MEL-5): 35.4 µM (inactive)
- GI50 (TK-10): > 100 µM (inactive)
- GI50 (U-251): 77.6 µM (inactive)
- GI50 (MDA-N): 38.3 µM (inactive)
- GI50 (OVCAR-8): > 100 µM (inactive)
- GI50 (HOP-62): > 100 µM (inactive)
